Data on two compounds can be found in patent publication US20090061000A1, “PHARMACEUTICAL FORMULATION USE 030” (AstraZeneca AB, priority 2007, published 2009).

Data set [1] has as its target T1, CYP2C9 (Homo sapiens, UniProt P11712).
T1 construct: from tissue
As to the kind of experiment: Cocktail drug-drug interaction study: tolbutamide pharmacokinetics as probe of CYP2C9 activity. The class given is in vivo. Conditions: co-administration of 500 mg Compound A with tolbutamide 500 mg. An excerpt:
24 healthy male subjects aged between 20 and 43 years received the following dosing regimens in random order: • 1.
The three treatments were separated by a wash-out period of 7 to 21 days.

The target of data set [2] is thrombin (Homo sapiens, UniProt P00734). Conditions: free amidine metabolite of Compound A; cited from earlier work.

T1 sequence (P11712 whole entry): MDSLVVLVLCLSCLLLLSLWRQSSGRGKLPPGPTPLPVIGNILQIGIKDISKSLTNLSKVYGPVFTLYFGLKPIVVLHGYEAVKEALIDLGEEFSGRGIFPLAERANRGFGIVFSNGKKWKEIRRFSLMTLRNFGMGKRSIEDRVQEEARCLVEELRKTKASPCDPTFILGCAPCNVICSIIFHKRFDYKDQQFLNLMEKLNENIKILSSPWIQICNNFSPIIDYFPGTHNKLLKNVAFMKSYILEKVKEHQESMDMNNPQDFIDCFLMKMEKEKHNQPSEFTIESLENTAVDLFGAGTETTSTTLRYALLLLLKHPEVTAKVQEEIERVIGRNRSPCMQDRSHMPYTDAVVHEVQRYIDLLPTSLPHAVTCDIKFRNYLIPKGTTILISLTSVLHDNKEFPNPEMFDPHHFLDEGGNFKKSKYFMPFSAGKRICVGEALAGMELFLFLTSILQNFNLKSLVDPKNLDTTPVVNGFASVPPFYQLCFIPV

On to `CO/N=C(\N)c1ccc(CNC(=O)[C@@H]2CCN2C(=O)[C@H](O)c2cc(Cl)cc(OC(F)F)c2)cc1` [Compound A, Ph(3-Cl)(5-OCHF2)—(R)CH(OH)C(O)—(S)Aze-Pab(OMe)], for which the “effect on CYP2C9 activity (influence on the pharmacokinetics of tolbutamide)” value in data set [1] is reported as “no effect”.

In the case of `N=C(N)c1ccc(CNC(=O)[C@@H]2CCN2C(=O)[C@H](O)c2cc(Cl)cc(OC(F)F)c2)cc1` [Compound C, Ph(3-Cl)(5-OCHF2)—(R)CH(OH)C(O)—(S)Aze-Pab], the inhibition of thrombin result in data set [2] is “has been found to inhibit thrombin”.
